From patent US9884063B2, “Amido-substituted azole compounds” (Bayer Pharma Aktiengesellschaft, priority 2014, dated 2018)
pIC50: −log10 of the molar value.

Target: T1, TNKS2 (Homo sapiens, UniProt Q9H2K2)
T1 sequence (Q9H2K2 1-1166): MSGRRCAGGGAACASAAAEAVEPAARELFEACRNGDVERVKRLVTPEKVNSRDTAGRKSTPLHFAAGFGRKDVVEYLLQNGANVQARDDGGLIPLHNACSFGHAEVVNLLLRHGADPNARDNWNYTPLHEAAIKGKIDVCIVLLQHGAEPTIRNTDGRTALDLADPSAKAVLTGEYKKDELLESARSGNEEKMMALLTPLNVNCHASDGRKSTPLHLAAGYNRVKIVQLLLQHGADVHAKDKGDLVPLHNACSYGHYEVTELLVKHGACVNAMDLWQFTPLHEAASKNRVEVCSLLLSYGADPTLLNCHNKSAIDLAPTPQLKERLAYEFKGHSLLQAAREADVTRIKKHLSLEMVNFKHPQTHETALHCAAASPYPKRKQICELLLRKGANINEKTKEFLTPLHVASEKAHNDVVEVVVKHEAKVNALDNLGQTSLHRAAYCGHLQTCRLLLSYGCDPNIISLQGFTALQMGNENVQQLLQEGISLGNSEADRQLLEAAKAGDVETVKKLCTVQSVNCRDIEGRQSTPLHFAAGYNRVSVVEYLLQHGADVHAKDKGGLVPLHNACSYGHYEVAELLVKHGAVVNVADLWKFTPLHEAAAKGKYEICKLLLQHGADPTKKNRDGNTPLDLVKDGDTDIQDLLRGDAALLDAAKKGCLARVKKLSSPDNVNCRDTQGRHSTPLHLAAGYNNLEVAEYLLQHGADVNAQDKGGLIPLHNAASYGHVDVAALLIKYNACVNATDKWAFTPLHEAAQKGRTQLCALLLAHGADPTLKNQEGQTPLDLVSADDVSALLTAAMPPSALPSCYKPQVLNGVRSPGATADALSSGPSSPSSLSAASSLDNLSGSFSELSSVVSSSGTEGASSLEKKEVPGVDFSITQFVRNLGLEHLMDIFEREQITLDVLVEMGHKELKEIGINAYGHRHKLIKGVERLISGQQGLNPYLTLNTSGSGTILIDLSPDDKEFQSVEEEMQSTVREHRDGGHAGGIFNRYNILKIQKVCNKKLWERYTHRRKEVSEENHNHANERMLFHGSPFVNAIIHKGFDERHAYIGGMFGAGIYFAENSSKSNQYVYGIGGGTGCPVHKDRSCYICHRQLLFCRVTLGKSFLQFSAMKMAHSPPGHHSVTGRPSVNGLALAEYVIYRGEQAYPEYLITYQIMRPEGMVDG
Test: Modified TNKS2 Assay 3 (BPS kit #80578, biotin-NAD+, 96 well)
Assay type: biochemical
Details: human TNKS2, BPS kit #80578, 96 well
Outline: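 Commercial kit assay measuring TNKS2-catalysed incorporation of biotin-labelled NAD+ into a protein substrate, detected by streptavidin-HRP chemiluminescence. Run per manufacturer's protocol; IC50 is the concentration halving the normalised signal.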

Compound	pIC50
O=C(Nc1ccc(NC(=O)c2[nH]cnc2C(=O)N2CC(F)C2)cc1)c1ccc(F)cc1Cl [Example 41, N-{4-[(2-chloro-4-fluorobenzoyl)amino]phenyl}-4-[(3-fluoroazetidin-1-yl)carbonyl]-1H-imidazole-5-carboxamide]	7.15
O=C(Nc1ccc(NC(=O)c2[nH]cnc2C(=O)N2CC(F)C2)cc1)c1cc(F)c(F)cc1Cl [Example 47, N-{4-[(2-chloro-4,5-difluorobenzoyl)amino]phenyl}-4-[(3-fluoroazetidin-1-yl)carbonyl]-1H-imidazole-5-carboxamide]	< 6.30
CN(C)CCNC(=O)c1nc[nH]c1C(=O)Nc1ccc(NC(=O)c2ccc(S(C)(=O)=O)cc2Cl)cc1 [Example 54, N^5-(4-{[2-chloro-4-(methylsulfonyl)benzoyl]amino}phenyl)-N^4-[2-(dimethylamino)ethyl]-1H-imidazole-4,5-dicarboxamide]	8.22
CCc1nc(C(=O)Nc2ccc(NC(=O)c3ccc(F)cc3Cl)cc2)c(C(=O)NCCN(C)C)[nH]1 [Example 69, N^4-{4-[(2-chloro-4-fluorobenzoyl)amino]phenyl}-N^5-[2-(dimethylamino)ethyl]-2-ethyl-1H-imidazole-4,5-dicarboxamide]	6.72
CCc1nc(C(=O)Nc2ccc(NC(=O)c3ccc(F)cc3Cl)cc2)c(C(=O)NCCN2CCCCC2)[nH]1 [Example 70, N^4-{4-[(2-chloro-4-fluorobenzoyl)amino]phenyl}-2-ethyl-N^5-[2-(piperidin-1-yl)ethyl]-1H-imidazole-4,5-dicarboxamide]	7.70
CNC(=O)c1nc[nH]c1C(=O)Nc1ccc(NC(=O)c2ccccc2Cl)c(OC)c1 [Example 99, N^5-{4-[(2-chlorobenzoyl)amino]-3-methoxyphenyl}-N^4-methyl-1H-imidazole-4,5-dicarboxamide]	7.05

Other lines, results leading:

pIC50	Compound
6.89	CC(CN1CCOCC1)NC(=O)c1[nH]cnc1C(=O)Nc1ccc(NC(=O)c2ccc(F)cc2Cl)cc1 (single isomer, unassigned; enantiomer 1) [Example 269, N^4-{4-[(2-chloro-4-fluorobenzoyl)amino]phenyl}-N^5-[1-(morpholin-4-yl)propan-2-yl]-1H-imidazole-4,5-dicarboxamide (enantiomer 1)]
6.72	CC(CN1CCOCC1)NC(=O)c1[nH]cnc1C(=O)Nc1ccc(NC(=O)c2ccc(F)cc2)cc1 (single isomer, unassigned; enantiomer 1) [Example 295, N^4-{4-[(4-fluorobenzoyl)amino]phenyl}-N^5-[1-(morpholin-4-yl)propan-2-yl]-1H-imidazole-4,5-dicarboxamide (enantiomer 1)]
< 6.30	CC(CN1CCOCC1)NC(=O)c1[nH]cnc1C(=O)Nc1ccc(NC(=O)c2ccc(F)cc2)cc1 (single isomer, unassigned; enantiomer 2) [Example 296, N^4-{4-[(4-fluorobenzoyl)amino]phenyl}-N^5-[1-(morpholin-4-yl)propan-2-yl]-1H-imidazole-4,5-dicarboxamide (enantiomer 2)]
< 6.30	CC(C)c1nc(C(=O)Nc2ccc(NC(=O)c3ccc(F)cc3Cl)cc2)c(C(=O)NCCN2CCCCC2)[nH]1 [Example 108, N^4-{4-[(2-chloro-4-fluorobenzoyl)amino]phenyl}-2-isopropyl-N^5-[2-(piperidin-1-yl)ethyl]-1H-imidazole-4,5-dicarboxamide]
6.85	NC(=O)c1nc[nH]c1C(=O)Nc1ccc(NC(=O)c2ccccc2Cl)cc1 [Example 120, N^5-{4-[(2-chlorobenzoyl)amino]phenyl}-1H-imidazole-4,5-dicarboxamide]
< 6.30	O=C(Nc1ccc(NC(=O)c2nc[nH]c2C(=O)NCC2CC2)cc1)c1ccc(F)cc1Cl [Example 128, N^4-{4-[(2-chloro-4-fluorobenzoyl)amino]phenyl}-N^5-(cyclopropylmethyl)-1H-imidazole-4,5-dicarboxamide]
6.37	O=C(Nc1ccc(NC(=O)c2nc[nH]c2C(=O)NCCO)cc1)c1ccc(F)cc1Cl [Example 132, N^4-{4-[(2-chloro-4-fluorobenzoyl)amino]phenyl}-N^5-(2-hydroxyethyl)-1H-imidazole-4,5-dicarboxamide]
6.82	CCNC(=O)c1[nH]cnc1C(=O)Nc1ccc(NC(=O)c2ccc(F)cc2Cl)cc1 [Example 138, N^4-{4-[(2-chloro-4-fluorobenzoyl)amino]phenyl}-N^5-ethyl-1H-imidazole-4,5-dicarboxamide]
6.46	O=C(Nc1ccc(NC(=O)c2nc[nH]c2C(=O)NCC(F)F)cc1)c1ccc(F)cc1Cl [Example 139, N^4-{4-[(2-chloro-4-fluorobenzoyl)amino]phenyl}-N^5-(2,2-difluoroethyl)-1H-imidazole-4,5-dicarboxamide]
7.22	O=C(Nc1ccc(NC(=O)c2nc[nH]c2C(=O)N2CCC2)cc1)c1ccc(F)cc1Cl [Example 142, 5-(azetidin-1-ylcarbonyl)-N-{4-[(2-chloro-4-fluorobenzoyl)amino]phenyl}-1H-imidazole-4-carboxamide]

Test system: HEK293 FOP control reporter cell line
Test: HEK293 FOP Assay (FOP control vector luciferase reporter)
Assay type: cell-based
Details: Homo sapiens; HEK293 FOP control reporter cell line, 16 hours incubation, compound dilution series 50 μM to 15 nM
Outline: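 Stable HEK293 line carrying the FOP vector (randomized, non-functional TCF sites; Geneticin-selected) was run in parallel with the TOP line. Cells were plated 24 h ahead at 10000/well and given recombinant human Wnt-3a at 2500–5 ng/ml. Compounds were tested at 50 μM–15 nM (3.16-fold steps) in CAFTY buffer, pH 7.4, with 2 mM Ca2+ and 0.01% BSA.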

Compound	pIC50
COC(=O)c1nc[nH]c1C(=O)Nc1ccc(NC(=O)c2ccccc2Cl)c(C)c1 [Example 86, methyl-5-({4-[(2-chlorobenzoyl)amino]-3-methylphenyl}carbamoyl)-1H-imidazole-4-carboxylate]	4.64
CNC(=O)c1[nH]c(C(C)C)nc1C(=O)Nc1ccc(NC(=O)c2ccc(F)cc2Cl)cc1 [Example 106, N^4-{4-[(2-chloro-4-fluorobenzoyl)amino]phenyl}-2-isopropyl-N^5-methyl-1H-imidazole-4,5-dicarboxamide]	4.89

Target: T1, TNKS2
Test: Modified TNKS2 Assay 2 (auto-parsylation, [3H]-NAD+ SPA)
Assay type: biochemical
Details: 6 nM TNKS2, 96 well

Compound	pIC50
COC(=O)c1nc[nH]c1C(=O)Nc1ccc(NC(=O)c2ccccc2Cl)c(C)c1 [Example 86, methyl-5-({4-[(2-chlorobenzoyl)amino]-3-methylphenyl}carbamoyl)-1H-imidazole-4-carboxylate]	5.47
Cc1cc(NC(=O)c2[nH]cnc2C(=O)NCCN2CCCCC2)ccc1NC(=O)c1ccccc1Cl [Example 89, N^5-{4-[(2-chlorobenzoyl)amino]-3-methylphenyl}-N^4-[2-(piperidin-1-yl)ethyl]-1H-imidazole-4,5-dicarboxamide]	7.30
COC(=O)c1nc[nH]c1C(=O)Nc1ccc(NC(=O)c2ccc(F)cc2Cl)c(OC)c1 [Example 94, methyl 5-({4-[(2-chloro-4-fluorobenzoyl)amino]-3-methoxyphenyl}carbamoyl)-1H-imidazole-4-carboxylate]	6.30
COc1cc(NC(=O)c2[nH]cnc2C(=O)NCCN(C)C)ccc1NC(=O)c1ccc(F)cc1Cl [Example 96, N^5-{4-[(2-chloro-4-fluorobenzoyl)amino]-3-methoxyphenyl}-N^4-[2-(dimethylamino)ethyl]-1H-imidazole-4,5-dicarboxamide]	7.40
COC(=O)c1nc[nH]c1C(=O)Nc1ccc(NC(=O)c2ccccc2Cl)c(OC)c1 [Example 98, methyl 5-({4-[(2-chlorobenzoyl)amino]-3-methoxyphenyl}carbamoyl)-1H-imidazole-4-carboxylate]	6.43
COc1cc(NC(=O)c2[nH]cnc2C(=O)NCCN(C)C)ccc1NC(=O)c1ccccc1Cl [Example 100, N^5-{4-[(2-chlorobenzoyl)amino]-3-methoxyphenyl}-N^4-[2-(dimethylamino)ethyl]-1H-imidazole-4,5-dicarboxamide]	6.80
COC(=O)c1nc[nH]c1C(=O)Nc1ccc(NC(=O)c2ccc(F)cc2)c(OC)c1 [Example 102, methyl 5-({4-[(4-fluorobenzoyl)amino]-3-methoxyphenyl}carbamoyl)-1H-imidazole-4-carboxylate]	< 5.00

Now from value to compound:

pIC50	Compound
< 5.00	CNC(=O)c1[nH]c(C(C)C)nc1C(=O)Nc1ccc(NC(=O)c2ccc(F)cc2Cl)cc1 [Example 106, N^4-{4-[(2-chloro-4-fluorobenzoyl)amino]phenyl}-2-isopropyl-N^5-methyl-1H-imidazole-4,5-dicarboxamide]
6.43	CNC(=O)c1nc[nH]c1C(=O)Nc1ccc(NC(=O)c2ccccc2Cl)nc1 [Example 112, N^5-{6-[(2-chlorobenzoyl)amino]pyridin-3-yl}-N^4-methyl-1H-imidazole-4,5-dicarboxamide]
7.40	CN(C)CCNC(=O)c1nc[nH]c1C(=O)Nc1ccc(NC(=O)c2ccccc2Cl)nc1 [Example 113, N^5-{6-[(2-chlorobenzoyl)amino]pyridin-3-yl}-N^4-[2-(dimethylamino)ethyl]-1H-imidazole-4,5-dicarboxamide]
